Source: PMC7489219 (Molecular Brain, 2020)
Counter-ions that a name gives are not always drawn.

Test system: T1, primary mouse cortical neurons
T1 construct: primary cortical neurons, DIV 10
Assay: cells
Set-up: Protection from NMDA-induced (30 uM, 10 min) neuronal death; Hoechst nuclear morphology by automated microscopy
Details: Cortical neurone, 20 h, read-out: % inhibition, inhibition of NMDA-induced cell death (protection score), 30 min pre-treatment
Description: On DIV 10, compounds were applied to the cells reaching an end concentration of 10 μM. Cells were incubated for 30 min at 37 °C, 5% CO2 before adding NMDA (30 μM). Cells were incubated for another 10 min in the incubator, then washed twice with defined minimal medium containing 10 μM of the respective compound and incubated for an additional 20 h before readout. Untreated (no NMDA) and NMDA-only stimulated wells were treated with 0.1% DMSO. […] After 15 min of incubation at room temperature, cells were washed twice with phosphate buffered saline. […] Dead neurons were identified by amorphous or shrunken nuclei using CellProfiler and CellProfiler Analyst software. For all cell death analyses the experimental unit (N) is defined as an independent experiment using an independent neuronal preparation. For each independent experiment, data from 3 replicate wells (i.e., from 36 images), representing an average of 3000 cells was analyzed per condition. The survival rate S was calculated by dividing the number of living cells by the total number of cells. The survival rate was then used to calculate the protection score according to Scompound−Svehicle/Suntreated−Svehicle×100=%protection , where ‘compound’ refers to compound + NMDA treatment, ‘vehicle’ refers to vehicle + NMDA treatment, and ‘untreated’ refers to DMSO control. […] As a proof of principle, we next used our assay to screen two commercially available drug libraries. In these screens, primary cortical cells were incubated with test compounds at 10 μM concentration for 30 min before addition of 30 μM NMDA. After 10 min NMDA treatment, cells were washed with fresh medium and kept in the presence of test compounds for 20 h until assessment of cell viability. […] This library covers structurally diverse drugs from several fields such as oncology, cardiology, immunology, and neurology/psychiatry.

Question: For `CC=CC1=C(C(=O)O)N2C(=O)[C@@H](NC(=O)[C@H](N)c3ccc(O)cc3)[C@H]2SC1` (mixture of isomers) [Cefprozil hydrate (Cefzil)], which inhibition at 10 µM is on record?
Answer: 0.674%

Question: `CCC(C)n1ncn(-c2ccc(N3CCN(c4ccc(OC[C@H]5CO[C@](Cn6cncn6)(c6ccc(Cl)cc6Cl)O5)cc4)CC3)cc2)c1=O` (mixture of isomers) [Itraconazole (Sporanox)] was tested. Which inhibition at 10 µM did it give?
Answer: 2.19%

Question: With `C[N+](C)(C)CC(O)CC(=O)[O-]` (racemic) [DL-Carnitine hydrochloride] as the compound, how does the inhibition at 10 µM read?
Answer: 2.11%

Question: How did the inhibition at 10 µM turn out when `CC(C)n1c(/C=C/[C@H](O)C[C@H](O)CC(=O)O)c(-c2ccc(F)cc2)c2ccccc21` (racemic) [Fluvastatin sodium (Lescol)] was run?
Answer: -2.48%

Question: `CC(=O)N1CCN(c2ccc(OC[C@@H]3CO[C@@](Cn4ccnc4)(c4ccc(Cl)cc4Cl)O3)cc2)CC1` (racemic) [Ketoconazole] was tested. Which inhibition at 10 µM did it give?
Answer: -15.9%

Question: How did the inhibition at 10 µM turn out when `C[C@@H](NCCc1ccc(O)cc1)[C@@H](O)c1ccc(O)cc1` (racemic) [Ritodrine hydrochloride (Yutopar)] was run?
Answer: 3.89%

Question: For `COc1cc2c(cc1O)CC[C@@H]1[C@@H]2CC[C@]2(C)[C@@H](O)CC[C@@H]12` [2-Methoxyestradiol], which inhibition at 10 µM is on record?
Answer: 19.8%

Question: With `O=C(O)CCCc1c[nH]c2ccccc12` [3-Indolebutyric acid (IBA)] as the compound, how does the inhibition at 10 µM read?
Answer: -1.77%

Question: How did the inhibition at 10 µM turn out when `Cc1cc(=O)oc2cc(O)ccc12` [4-Methylumbelliferone (4-MU)] was run?
Answer: -0.113%

Question: For `NCC(=O)CCC(=O)O` [5-Aminolevulinic acid hydrochloride], which inhibition at 10 µM is on record?
Answer: -1.27%

Question: For `N[C@@H](Cc1c[nH]c2ccc(O)cc12)C(=O)O` [5-hydroxytryptophan (5-HTP)], which inhibition at 10 µM is on record?
Answer: -0.632%

Question: `CC(=O)C1=C(O)C=C2Oc3c(C(C)=O)c(O)c(C)c(O)c3[C@@]2(C)C1=O` [(+)-Usniacin (D-Usnic acid)] was tested. Which inhibition at 10 µM did it give?
Answer: -4.28%

Question: Which inhibition at 10 µM does the source give for `O=C(O[C@@H]1Cc2c(O)cc(O)cc2O[C@@H]1c1cc(O)c(O)c(O)c1)c1cc(O)c(O)c(O)c1` [(-)-Epigallocatechin gallate] here?
Answer: 4.13%

Question: With `C/C=C1\[C@H]2C=C(C)C[C@]1(N)c1ccc(=O)[nH]c1C2` [(-)-Huperzine A] as the compound, how does the inhibition at 10 µM read?
Answer: -1.76%

Question: How did the inhibition at 10 µM turn out when `C[C@@H](NCCCc1cccc(C(F)(F)F)c1)c1cccc2ccccc12` [AMG-073 HCl (Cinacalcet hydrochloride)] was run?
Answer: -14.8%

Question: With `Nc1ncnc2c1ncn2[C@@H]1O[C@H](COP(=O)(O)OP(=O)(O)OP(=O)(O)O)[C@@H](O)[C@H]1O` [ATP (Adenosine-Triphosphate)] as the compound, how does the inhibition at 10 µM read?
Answer: 0.248%

Question: `CC(=O)O[C@H]1CC[C@@]2(C)C(=CC[C@@H]3[C@@H]2CC[C@]2(C)C(c4cccnc4)=CC[C@@H]32)C1` [Abiraterone Acetate (CB7630)] was tested. Which inhibition at 10 µM did it give?
Answer: -0.808%

Question: How did the inhibition at 10 µM turn out when `NC(=O)c1ncn([C@@H]2O[C@H](CO)[C@@H](O)[C@H]2O)c1N` [Acadesine] was run?
Answer: 4.99%

Question: With `C[C@H]1O[C@H](O[C@H]2[C@H](O)[C@@H](O)[C@@H](O[C@@H]([C@H](O)[C@@H](O)C=O)[C@H](O)CO)O[C@@H]2CO)[C@H](O)[C@@H](O)[C@@H]1N[C@H]1C=C(CO)[C@@H](O)[C@H](O)[C@H]1O` [Acarbose] as the compound, how does the inhibition at 10 µM read?
Answer: 4.12%

Question: How did the inhibition at 10 µM turn out when `CC(=O)N[C@@H](CS)C(=O)O` [Acetylcysteine] was run?
Answer: 29%

Question: How did the inhibition at 10 µM turn out when `Cc1cnc(C(=O)O)c[n+]1[O-]` [Acipimox] was run?
Answer: -0.00389%

Question: How did the inhibition at 10 µM turn out when `Nc1nc2c(ncn2COCCO)c(=O)[nH]1` [Acyclovir (Aciclovir)] was run?
Answer: -1.44%

Question: With `COc1ccc(-c2ccc3cc(C(=O)O)ccc3c2)cc1[C@]12C[C@H]3C[C@H](C[C@H](C3)C1)C2` [Adapalene] as the compound, how does the inhibition at 10 µM read?
Answer: 63.6%

Question: `CC(C)(C)C(=O)OCOP(=O)(COCCn1cnc2c(N)ncnc21)OCOC(=O)C(C)(C)C` [Adefovir Dipivoxil (Preveon, Hepsera)] was tested. Which inhibition at 10 µM did it give?
Answer: 18.8%

Question: Which inhibition at 10 µM does the source give for `Nc1ncnc2c1ncn2[C@@H]1O[C@H](CO)[C@@H](O)[C@H]1O` [Adenosine (Adenocard)] here?
Answer: 15.3%

Question: For `O=c1[nH]cc(F)c(=O)[nH]1` [Adrucil (Fluorouracil)], which inhibition at 10 µM is on record?
Answer: -16.3%

Question: With `COc1ccc2cccc(CCNC(C)=O)c2c1` [Agomelatine] as the compound, how does the inhibition at 10 µM read?
Answer: -12.7%

Question: `CCCSc1ccc2[nH]c(NC(=O)OC)nc2c1` [Albendazole (Albenza)] was tested. Which inhibition at 10 µM did it give?
Answer: 28.3%

Question: `NCCCC(O)(P(=O)(O)O)P(=O)(O)O` [Alendronate (Fosamax)] was tested. Which inhibition at 10 µM did it give?
Answer: 40.1%

Question: With `COc1cc2nc(N(C)CCCNC(=O)C3CCCO3)nc(N)c2cc1OC` (centres unmarked) [Alfuzosin hydrochloride (Uroxatral)] as the compound, how does the inhibition at 10 µM read?
Answer: -0.34%

Question: Which inhibition at 10 µM does the source give for `COCCCOc1cc(C[C@@H](C[C@H](N)[C@@H](O)C[C@H](C(=O)NCC(C)(C)C(N)=O)C(C)C)C(C)C)ccc1OC` [Aliskiren hemifumarate] here?
Answer: 30.5%

Question: With `Oc1ncnc2[nH]ncc12` [Allopurinol (Zyloprim)] as the compound, how does the inhibition at 10 µM read?
Answer: 19.8%

Question: With `O=c1[nH]cnc2[nH]ncc12` [Allopurinol Sodium (Aloprim)] as the compound, how does the inhibition at 10 µM read?
Answer: 21.4%

Question: With `O=C1c2c(O)cccc2[C@H]([C@@H]2O[C@H](CO)[C@@H](O)[C@H](O)[C@H]2O)c2cc(CO)cc(O)c21` [Aloin (Barbaloin)] as the compound, how does the inhibition at 10 µM read?
Answer: 0.91%

Question: For `CN(C)c1nc(N(C)C)nc(N(C)C)n1` [Altretamine (Hexalen)], which inhibition at 10 µM is on record?
Answer: -3.75%

Question: How did the inhibition at 10 µM turn out when `NC12CC3CC(CC(C3)C1)C2` [Amantadine hydrochloride (Symmetrel)] was run?
Answer: 1.41%

Question: How did the inhibition at 10 µM turn out when `CC(NC(C)(C)C)C(=O)c1cccc(Cl)c1` (centres unmarked) [Amfebutamone (Bupropion)] was run?
Answer: 2.08%

Question: `N=C(N)NC(=O)c1nc(Cl)c(N)nc1N` [Amiloride hydrochloride (Midamor)] was tested. Which inhibition at 10 µM did it give?
Answer: -0.812%

Question: Which inhibition at 10 µM does the source give for `NCCCCCC(=O)O` [Aminocaproic acid (Amicar)] here?
Answer: 25.5%

Question: For `Cn1c(=O)c2[nH]cnc2n(C)c1=O` [Aminophylline (Truphylline)], which inhibition at 10 µM is on record?
Answer: 12%

Question: How did the inhibition at 10 µM turn out when `CCOC(=O)C1=C(COCCN)NC(C)=C(C(=O)OC)C1c1ccccc1Cl` (centres unmarked) [Amlodipine besylate (Norvasc)] was run?
Answer: -2.44%

Question: `CCC(C)(C)c1ccc(CC(C)CN2C[C@@H](C)O[C@@H](C)C2)cc1` (some centres unmarked) [Amorolfine Hydrochloride] was tested. Which inhibition at 10 µM did it give?
Answer: -45.8%

Question: How did the inhibition at 10 µM turn out when `CC1(C)S[C@@H]2[C@H](NC(=O)[C@H](N)c3ccc(O)cc3)C(=O)N2[C@H]1C(=O)O` [Amoxicillin (Amox)] was run?
Answer: -1.15%

Question: How did the inhibition at 10 µM turn out when `CC(C)(C#N)c1cc(Cn2cncn2)cc(C(C)(C)C#N)c1` [Anastrozole] was run?
Answer: 3.89%

Question: With `C=C1CC[C@@H]2[C@](C)(CO)[C@H](O)CC[C@@]2(C)[C@@H]1C/C=C1/C(=O)OC[C@H]1O` [Andrographolide] as the compound, how does the inhibition at 10 µM read?
Answer: -4.01%

Question: Which inhibition at 10 µM does the source give for `N#CC1(c2ccc(NC(=O)c3cccnc3NCc3ccncc3)cc2)CCCC1` [Apatinib (YN968D1)] here?
Answer: -0.459%

Question: `O=c1cc(-c2ccc(O)cc2)oc2cc(O)cc(O)c12` [Apigenin] was tested. Which inhibition at 10 µM did it give?
Answer: -0.752%

Question: How did the inhibition at 10 µM turn out when `COc1cc(C(C)=O)ccc1O` [Apocynin (Acetovanillone)] was run?
Answer: -0.991%

Question: Which inhibition at 10 µM does the source give for `C[C@@H](O[C@H]1OCCN(Cc2n[nH]c(=O)[nH]2)[C@H]1c1ccc(F)cc1)c1cc(C(F)(F)F)cc(C(F)(F)F)c1` [Aprepitant (MK-0869)] here?
Answer: 17.6%

Question: How did the inhibition at 10 µM turn out when `OC[C@H]1O[C@@H](Oc2ccc(O)cc2)[C@H](O)[C@@H](O)[C@@H]1O` [Arbutin (Uva, p-Arbutin)] was run?
Answer: -0.469%

Question: Which inhibition at 10 µM does the source give for `CO[C@H]1O[C@@H]2O[C@@]3(C)CC[C@H]4[C@H](C)CC[C@@H]([C@H]1C)[C@@]24OO3` [Artemether (SM-224)] here?
Answer: 1.03%

Question: How did the inhibition at 10 µM turn out when `C[C@H]1[C@H](OC(=O)CCC(=O)O)O[C@@H]2O[C@@]3(C)CC[C@H]4[C@H](C)CC[C@@H]1[C@@]24OO3` [Artesunate] was run?
Answer: -3.35%

Question: Which inhibition at 10 µM does the source give for `C[C@H]1[C@H](C)CC[C@]2(C(=O)O)CC[C@]3(C)C(=CC[C@@H]4[C@@]5(C)C[C@@H](O)[C@H](O)[C@@](C)(CO)[C@@H]5CC[C@]43C)[C@H]12` [Asiatic acid] here?
Answer: -2.44%

Question: Which inhibition at 10 µM does the source give for `CC(C)(O)[C@H]1CC[C@@](C)([C@H]2[C@@H](O)C[C@@]3(C)[C@@H]4C[C@H](O[C@@H]5O[C@H](CO)[C@@H](O)[C@H](O)[C@H]5O)[C@H]5C(C)(C)[C@@H](O[C@@H]6OC[C@@H](O)[C@H](O)[C@H]6O)CC[C@@]56C[C@@]46CC[C@]23C)O1` [Astragaloside A] here?
Answer: 0.89%

Question: For `COC(=O)N[C@H](C(=O)N[C@@H](Cc1ccccc1)[C@@H](O)CN(Cc1ccc(-c2ccccn2)cc1)NC(=O)[C@@H](NC(=O)OC)C(C)(C)C)C(C)(C)C` [Atazanavir sulfate], which inhibition at 10 µM is on record?
Answer: 2.12%

Question: With `CN1[C@@H]2CC[C@H]1CC(OC(=O)C(CO)c1ccccc1)C2` (some centres unmarked) [Atropine] as the compound, how does the inhibition at 10 µM read?
Answer: 9.73%

Question: Which inhibition at 10 µM does the source give for `CN1CCCC(n2nc(Cc3ccc(Cl)cc3)c3ccccc3c2=O)CC1` (centres unmarked) [Azelastine hydrochloride (Astelin)] here?
Answer: -2.32%

Question: `C[C@H]1[C@H](NC(=O)/C(=N\OC(C)(C)C(=O)O)c2csc(N)n2)C(=O)N1S(=O)(=O)O` [Aztreonam (Azactam, Cayston)] was tested. Which inhibition at 10 µM did it give?
Answer: -1.22%

Question: With `Cn1c(CNc2ccc(C(=N)N)cc2)nc2cc(C(=O)N(CCC(=O)O)c3ccccn3)ccc21` [BIBR 953 (Dabigatran etexilate, Pradaxa)] as the compound, how does the inhibition at 10 µM read?
Answer: -1.4%
